Measurements from patent publication US20250082674A1, “METHODS OF TREATING COPPER METABOLISM-ASSOCIATED DISEASES OR DISORDERS” (priority 2021, published 2025).
Like-named read-outs stand apart in the source and are kept apart here.

Assays:
^64Cu in blood = tested on: ^64Cu in blood
Procedure: 15 minutes after intravenous administration of ^64Cu, a dynamic PET-MR scan was performed, followed by additional scans at 1, 2, 6, 20, 48, 54, and 68 hours. Venous blood samples were collected for quantitation of radioactivity at multiple time points.

From the text for albumin levels: Across the 301, 201, and 205 studies, 102 participants had cirrhosis at baseline.

Bis-choline tetrathiomolybdate [BC-TTM]
Intravenously injected ^64Cu in the blood (^64Cu in blood; Post (after BC-TTM treatment), 5 sec): 0.05 | Intravenously injected ^64Cu in the blood (^64Cu in blood; Post (after BC-TTM treatment), 15 sec): 1.02 | Intravenously injected ^64Cu in the blood (^64Cu in blood; Post (after BC-TTM treatment), 60 sec): 4.16 | Intravenously injected ^64Cu in the blood (^64Cu in blood; Post (after BC-TTM treatment), 120 sec): 3.47 (4.65) | Intravenously injected ^64Cu in the blood (^64Cu in blood; Post (after BC-TTM treatment), 200 sec): 5.01 | Intravenously injected ^64Cu in the blood (^64Cu in blood; Post (after BC-TTM treatment), 300 sec): 6.99 | Intravenously injected ^64Cu in the blood (^64Cu in blood; Post (after BC-TTM treatment), 600 sec): 7.03 | Intravenously injected ^64Cu in the blood (^64Cu in blood; Post (after BC-TTM treatment), 1 hour): 5.43 | Intravenously injected ^64Cu in the blood (^64Cu in blood; Post (after BC-TTM treatment), 2 hours): 5.09 | Intravenously injected ^64Cu in the blood (^64Cu in blood; Post (after BC-TTM treatment), 6 hours): 2.54 | Intravenously injected ^64Cu in the blood (^64Cu in blood; Post (after BC-TTM treatment), 20 hours): 0.77 (0.41) | Intravenously injected ^64Cu in the blood (^64Cu in blood; Post (after BC-TTM treatment), 48 hours): 0.51 | Intravenously injected ^64Cu in the blood (^64Cu in blood; Post (after BC-TTM treatment), 54 hours): 0.42 | Intravenously injected ^64Cu in the blood (^64Cu in blood; Post (after BC-TTM treatment), 68 hours): 0.42 | Intravenously injected ^64Cu in the blood (^64Cu in blood; Pre (before BC-TTM treatment), 5 sec): 0.00 | Intravenously injected ^64Cu in the blood (^64Cu in blood; Pre (before BC-TTM treatment), 15 sec): 0.00 | Intravenously injected ^64Cu in the blood (^64Cu in blood; Pre (before BC-TTM treatment), 60 sec): 5.30 | Intravenously injected ^64Cu in the blood (^64Cu in blood; Pre (before BC-TTM treatment), 120 sec): 5.15 (4.28) | Intravenously injected ^64Cu in the blood (^64Cu in blood; Pre (before BC-TTM treatment), 200 sec): 5.13 | Intravenously injected ^64Cu in the blood (^64Cu in blood; Pre (before BC-TTM treatment), 300 sec): 5.88 | Intravenously injected ^64Cu in the blood (^64Cu in blood; Pre (before BC-TTM treatment), 600 sec): 4.35 | Intravenously injected ^64Cu in the blood (^64Cu in blood; Pre (before BC-TTM treatment), 1 hour): 0.78 | Intravenously injected ^64Cu in the blood (^64Cu in blood; Pre (before BC-TTM treatment), 2 hours): 0.64 | Intravenously injected ^64Cu in the blood (^64Cu in blood; Pre (before BC-TTM treatment), 6 hours): 0.42 | Intravenously injected ^64Cu in the blood (^64Cu in blood; Pre (before BC-TTM treatment), 20 hours): 0.32 (0.06) | Intravenously injected ^64Cu in the blood (^64Cu in blood; Pre (before BC-TTM treatment), 48 hours): 0.33 | Intravenously injected ^64Cu in the blood (^64Cu in blood; Pre (before BC-TTM treatment), 54 hours): 0.28 | Intravenously injected ^64Cu in the blood (^64Cu in blood; Pre (before BC-TTM treatment), 68 hours): 0.25 | 64Cu peak in blood and clearance from blood after treatment (^64Cu in blood; WD patients, FIG. 31): higher peak in the blood and its clearance from blood was delayed | 64Cu in the blood after versus before treatment (^64Cu in blood; WD patients, from 1 hour to 48 hours after intravenous 64Cu): significantly more | Albumin Level (albumin levels; Study 201 (normal 33-49), Participant 9, Baseline): 29 mg/dL | Albumin Level (albumin levels; Study 201 (normal 33-49), Participant 9, Week 48): 45 mg/dL | Albumin Level (albumin levels; Study 201 (normal 33-49), Participant 9, Week 150, early termination): 46 mg/dL | Albumin Level (albumin levels; Study 201 (normal 33-49), Participant 10, Baseline): 29 mg/dL | Albumin Level (albumin levels; Study 201 (normal 33-49), Participant 10, Week 48): 40 mg/dL | Albumin Level (albumin levels; Study 201 (normal 33-49), Participant 10, Week 98): 40 mg/dL | Albumin Level (albumin levels; Study 201 (normal 33-49), Participant 10, Week 163, early termination): 39 mg/dL | Albumin Level (albumin levels; Study 201 (normal 33-49), Participant 11, Baseline): 31 mg/dL | Albumin Level (albumin levels; Study 201 (normal 33-49), Participant 11, Week 48): 44 mg/dL | Albumin Level (albumin levels; Study 201 (normal 33-49), Participant 11, Week 98): 46 mg/dL | Albumin Level (albumin levels; Study 201 (normal 33-49), Participant 11, Week 150): 44 mg/dL | Albumin Level (albumin levels; Study 205 (normal 35-55), Participant 12, Baseline): 36 mg/dL | Albumin Level (albumin levels; Study 205 (normal 35-55), Participant 12, Day 43): 33 mg/dL | Albumin Level (albumin levels; Study 205 (normal 35-55), Participant 12, Day 57): 30 mg/dL | Albumin Level (albumin levels; Study 205 (normal 35-55), Participant 12, Day 169): 34 mg/dL | Albumin Level (albumin levels; Study 205 (normal 35-55), Participant 12, Day 253): 34 mg/dL | Albumin Level (albumin levels; Study 205 (normal 35-55), Participant 12, Day 337, early termination): 37 mg/dL | Albumin Level (albumin levels; Study 205 (normal 35-55), Participant 13, Baseline): 45 mg/dL | Albumin Level (albumin levels; Study 205 (normal 35-55), Participant 13, Day 345): 27 mg/dL | Albumin Level (albumin levels; Study 301 (normal 35-55), Participant 1, Baseline): 33 mg/dL | Albumin Level (albumin levels; Study 301 (normal 35-55), Participant 1, Week 48): 47 mg/dL | Albumin Level (albumin levels; Study 301 (normal 35-55), Participant 1, Week 96): 48 mg/dL | Albumin Level (albumin levels; Study 301 (normal 35-55), Participant 2, Baseline): 37 mg/dL | Albumin Level (albumin levels; Study 301 (normal 35-55), Participant 2, Week 48): 34 mg/dL
